{
  "source": "patent US20100297056A1",
  "about": "“COMPOSITION BASED ON PERHYDROSQUALENE AND COLLAGEN-POLYVINYLPYRROLIDONE FOR FILLING MINOR CUTANEOUS DEPRESSIONS” (ASPID, S.A. DE C.V., priority 2007, published 2010)",
  "key": {"[1]": {"details": "excreted through natural routes; cited from earlier work"}, "[2]": {"details": "in vivo; cited from earlier work"}, "[3]": {"details": "humans; cited from earlier work"}, "[4]": {"details": "rats, oral, three-month period; cited from earlier work"}, "[5]": {"details": "dogs, cited from earlier work"}, "[6]": {"tested_on": "rat skin", "assay": "murine model of intradermal administration of implant materials", "assay_type": "in vivo, rats", "details": "sensorial analog scale, papule palpation", "procedure": "Because of the above, a murine model essay of intradermal administration was designed, wherein several implant materials were evaluated such as natural and synthetic jojoba oil, peanut oil and perhydrosqualene, mixed with collagen-polyvinylpyrrolidone, various emulsifiers and a gelling agent (dibutyl-lauroyl glutamide). The administration of the implant materials generated papules, formed by the deposition of the material in the reticular dermis of the back of the rats. The papules were evaluated with regard to the tolerance of the tissue to the implant through a visual analog scale during a period of about 30 days, with their intervals; moreover, the eventual occurrence of skin changes such as irritation, ischemia formation and in some cases tissue necrosis related to the implanted material were reported, as well as the durability of the bioimplant that was quantified through a sensorial analog scale derived from the papule palpation.\nIn the same way, histological rat skin changes were evaluated through biopsies obtained from the implant infiltrated site, said biopsies were collected at different times in order to determine whether changes occurred in the internal skin structure, as well as to observe the implant site, the inflammatory infiltrate, the ratio between type I and type III collagens, as well as the possible formation of granulomes."}, "[7]": {"details": "mice; cited from earlier work"}},
  "data": [
    {"molecule": "CC(C)CCCC(C)CCCC(C)CCCCC(C)CCCC(C)CCCC(C)C", "note": "(stereo not drawn) [perhydrosqualene, 2,6,10,15,19,23-hexamethyltetracosane]", "values": [
      {"measurement": "metabolism", "setting": "[1]", "result": "non-metabolizable"},
      {"measurement": "mean lethal dose DL50", "setting": "[2]", "result": "> 20", "unit": "mL/kg"},
      {"measurement": "cutaneous and ocular irritation", "setting": "[3]", "result": "absence of cutaneous and ocular irritation"},
      {"measurement": "signs of toxicity", "setting": "[4]", "result": "did not show signs of toxicity"},
      {"measurement": "blood level", "setting": "[5]; 1200 mg/kg during 14 days", "result": 30, "unit": "ppm"},
      {"measurement": "perhydrosqualene excretion", "setting": "[5]; 1200 mg/kg during 14 days", "result": "65-90 % per day"},
      {"measurement": "perhydrosqualene in blood on day 56", "setting": "[5]; day 56 after the first dose", "result": "not detectable"},
      {"measurement": "durability of the bioimplant in the tissue", "setting": "[6]", "result": "constant even 15 days after its administration"},
      {"measurement": "irritation after subcutaneous injections", "setting": "[7]", "result": "absence of cutaneous and ocular irritation"}
    ]}
  ]
}
